Values after ≈ are worked out from the molar mass of the structure shown.
Legend:
Type in all cases: functional
Escherichia coli = assay: Antibacterial activity against Escherichia coli assessed as growth inhibition by serial dilution method
Staphylococcus aureus = assay: Antibacterial activity against Staphylococcus aureus assessed as growth inhibition by serial dilution method
[1] = tested on: Mycolicibacterium fortuitum; assay: Antimycobacterial activity against Mycobacterium fortuitum ATCC 19542 assessed as growth inhibition at 1 to 100 ug/mL by resazurin assay
Rhizopus = assay: Antifungal activity against Rhizopus sp. assessed as growth inhibition by serial dilution method
Aspergillus flavus = assay: Antifungal activity against Aspergillus flavus assessed as growth inhibition by serial dilution method
[2] = tested on: Mycolicibacterium smegmatis; assay: Antimycobacterial activity against Mycobacterium smegmatis ATCC 19420 assessed as growth inhibition at 1 to 100 ug/mL by resazurin assay
Klebsiella pneumoniae [3] = assay: Antibacterial activity against Klebsiella pneumoniae assessed as growth inhibition by serial dilution method
[4] = tested on: Mycolicibacterium fortuitum; assay: Antimycobacterial activity against Mycobacterium fortuitum ATCC 19542 assessed as growth inhibition at 0.3125 to 5 ug/mL by resazurin assay
Candida albicans = assay: Antifungal activity against Candida albicans assessed as growth inhibition by serial dilution method
[5] = tested on: Mycobacterium tuberculosis; assay: Antimycobacterial activity against Mycobacterium tuberculosis H37Rv assessed as growth inhibition at 1 to 100 ug/mL by resazurin assay; details: for MIC: Mycobacterium tuberculosis, H37Rv
[6] = tested on: Mycobacterium tuberculosis; assay: Antimycobacterial activity against Mycobacterium tuberculosis H37Rv assessed as growth inhibition at 0.3125 to 5 ug/mL by resazurin assay
Klebsiella pneumoniae [7] = assay: Potency index, ratio of ciprofloxacin MIC to compound MIC for Klebsiella pneumoniae
[8] = tested on: Mycolicibacterium smegmatis; assay: Antimycobacterial activity against Mycobacterium smegmatis ATCC 19420 assessed as growth inhibition at 0.3125 to 5 ug/mL by resazurin assay

Structure (SMILES) | MIC (Escherichia coli) | MIC (Staphylococcus aureus) | MIC [1] | MIC (Rhizopus) | MIC (Aspergillus flavus) | MIC [2] | MIC (Klebsiella pneumoniae [3]) | MIC [4] | MIC (Candida albicans) | growth inhibition (GI) [5] | MIC [5] | MIC [6] | PI (Klebsiella pneumoniae [7]) | MIC [8]
Cc1cccc(S(=O)(=O)n2c(COc3ccc([N+](=O)[O-])cc3)nc3cc(Br)ccc32)c1 | 64 µg/mL (≈ 127 µM) | 128 µg/mL (≈ 255 µM) | 10 µg/mL (≈ 19.9 µM) | 128 µg/mL (≈ 255 µM) | > 256 µg/mL | 10 µg/mL (≈ 19.9 µM) | > 256 µg/mL | 10 µg/mL (≈ 19.9 µM) | 64 µg/mL (≈ 127 µM) | 90% | > 100 µg/mL | 1.25 µg/mL (≈ 2.49 µM) |  | 
O=[N+]([O-])c1ccc(OCc2nc3cc(Br)ccc3n2S(=O)(=O)c2ccccc2Cl)cc1 | 4 µg/mL (≈ 7.65 µM) | 16 µg/mL (≈ 30.6 µM) | 10 µg/mL (≈ 19.1 µM) | 16 µg/mL (≈ 30.6 µM) | 32 µg/mL (≈ 61.2 µM) | 1 µg/mL (≈ 1.91 µM) | 8 µg/mL (≈ 15.3 µM) | 10 µg/mL (≈ 19.1 µM) | 8 µg/mL (≈ 15.3 µM) | 90% | 1 µg/mL (≈ 1.91 µM) | 0.625 µg/mL (≈ 1.2 µM) | 1 | 1.25 µg/mL (≈ 2.39 µM)
O=[N+]([O-])c1ccc(OCc2nc3ccc(Br)cc3n2S(=O)(=O)c2ccccc2[N+](=O)[O-])cc1 | 128 µg/mL (≈ 240 µM) | > 256 µg/mL | 10 µg/mL (≈ 18.8 µM) | 256 µg/mL (≈ 480 µM) | > 256 µg/mL | 1 µg/mL (≈ 1.88 µM) | 256 µg/mL (≈ 480 µM) | 1.25 µg/mL (≈ 2.34 µM) | > 256 µg/mL | 90% | 1 µg/mL (≈ 1.88 µM) | 1.25 µg/mL (≈ 2.34 µM) |  | 1.25 µg/mL (≈ 2.34 µM)
N#Cc1cccc(S(=O)(=O)n2c(COc3ccc([N+](=O)[O-])cc3)nc3ccc(Br)cc32)c1 | > 256 µg/mL | 256 µg/mL (≈ 499 µM) | > 100 µg/mL | 128 µg/mL (≈ 249 µM) | > 256 µg/mL | 10 µg/mL (≈ 19.5 µM) | 256 µg/mL (≈ 499 µM) |  | 128 µg/mL (≈ 249 µM) | <90% | > 100 µg/mL | 5 µg/mL (≈ 9.74 µM) |  | 
Nc1ccc(OCc2nc3cc(Br)ccc3[nH]2)cc1 | 128 µg/mL (≈ 402 µM) | 64 µg/mL (≈ 201 µM) | > 100 µg/mL | 256 µg/mL (≈ 805 µM) | 128 µg/mL (≈ 402 µM) | 10 µg/mL (≈ 31.4 µM) | 128 µg/mL (≈ 402 µM) |  | 64 µg/mL (≈ 201 µM) | <90% | 10 µg/mL (≈ 31.4 µM) | 5 µg/mL (≈ 15.7 µM) |  | 10 µg/mL (≈ 31.4 µM)
Cc1c(F)cccc1S(=O)(=O)n1c(COc2ccc([N+](=O)[O-])cc2)nc2ccc(Br)cc21 | 256 µg/mL (≈ 492 µM) | > 256 µg/mL | > 100 µg/mL | 256 µg/mL (≈ 492 µM) | > 256 µg/mL | > 100 µg/mL | > 256 µg/mL |  | 256 µg/mL (≈ 492 µM) | <90% | 10 µg/mL (≈ 19.2 µM) | 1.25 µg/mL (≈ 2.4 µM) |  | 
COc1ccc(OC)c(S(=O)(=O)n2c(COc3ccc([N+](=O)[O-])cc3)nc3cc(Br)ccc32)c1 | 128 µg/mL (≈ 233 µM) | 128 µg/mL (≈ 233 µM) | 10 µg/mL (≈ 18.2 µM) | 256 µg/mL (≈ 467 µM) | 64 µg/mL (≈ 117 µM) | 1 µg/mL (≈ 1.82 µM) | 256 µg/mL (≈ 467 µM) | 1.25 µg/mL (≈ 2.28 µM) | 128 µg/mL (≈ 233 µM) | 90% | 1 µg/mL (≈ 1.82 µM) | 1.25 µg/mL (≈ 2.28 µM) |  | 1.25 µg/mL (≈ 2.28 µM)
O=[N+]([O-])c1ccc(OCc2nc3ccc(Br)cc3n2S(=O)(=O)c2ccccc2Cl)cc1 | > 256 µg/mL | 128 µg/mL (≈ 245 µM) | > 100 µg/mL | > 256 µg/mL | > 256 µg/mL | > 100 µg/mL | 256 µg/mL (≈ 490 µM) |  | 128 µg/mL (≈ 245 µM) | 0% | > 100 µg/mL |  |  | 
O=[N+]([O-])c1ccc(OCc2nc3ccc(Br)cc3n2S(=O)(=O)c2ccc(Cl)cc2Cl)cc1 | > 256 µg/mL | 64 µg/mL (≈ 115 µM) | > 100 µg/mL | > 256 µg/mL | 128 µg/mL (≈ 230 µM) | > 100 µg/mL | 256 µg/mL (≈ 459 µM) |  | > 256 µg/mL | 0% | > 100 µg/mL |  |  | 
O=C(O)c1cn(C2CC2)c2cc(N3CCNCC3)c(F)cc2c1=O [CIPROFLOXACIN] |  | 8 µg/mL (≈ 24.1 µM) |  |  |  |  | 16 µg/mL (≈ 48.3 µM) |  |  |  |  |  |  | 
C[C@@H]1[C@H](O)[C@@H](C)/C=C/C=C/C=C/C=C/C=C/C=C/C=C/[C@H](O[C@@H]2O[C@H](C)[C@@H](O)[C@H](N)[C@@H]2O)C[C@@H]2O[C@](O)(C[C@@H](O)C[C@@H](O)[C@H](O)CC[C@@H](O)C[C@@H](O)CC(=O)O[C@H]1C)C[C@H](O)[C@H]2C(=O)O [AMPHOTERICIN B] |  |  |  | 16 µg/mL (≈ 17.3 µM) | 8 µg/mL (≈ 8.66 µM) |  |  |  | 8 µg/mL (≈ 8.66 µM) |  |  |  |  | 
COc1ccc(S(=O)(=O)n2c(COc3ccc([N+](=O)[O-])cc3)nc3cc(Br)ccc32)c(OC)c1 | 256 µg/mL (≈ 467 µM) | 64 µg/mL (≈ 117 µM) | 10 µg/mL (≈ 18.2 µM) | 256 µg/mL (≈ 467 µM) | 128 µg/mL (≈ 233 µM) | 1 µg/mL (≈ 1.82 µM) | 128 µg/mL (≈ 233 µM) | 1.25 µg/mL (≈ 2.28 µM) | 128 µg/mL (≈ 233 µM) | 90% | 1 µg/mL (≈ 1.82 µM) | 1.25 µg/mL (≈ 2.28 µM) |  | 1.25 µg/mL (≈ 2.28 µM)
